Source: ChEMBL document CHEMBL4808237, “Ginkgonitroside, a new nitrophenyl glycoside and bioactive compounds from Ginkgo biloba leaves controlling adipocyte and osteoblast differentiation” (2021)

How the values were obtained:
[1] = Inhibition of adipogenesis in mouse C3H10T1/2 cells assessed as lipid droplet formation at 20 uM by Oil red O staining relative to control; type: functional, C3H 10T1/2; set-up: scale not given: the % may be the effect or the level left
C3H 10T1/2 = assay: Induction of differentiation in mouse C3H10T1/2 cells assessed as increase […] by measuring ALP activity at 20 uM relative to control; type: functional

| SMILES | Activity [1] [%] | fold change (FC) (C3H 10T1/2) |
| --- | --- | --- |
| O=[N+]([O-])c1ccc(O[C@@H]2O[C@H](CO)[C@@H](O)[C@H](O)[C@H]2O)cc1 | 17 |  |
| Cc1cc([N+](=O)[O-])ccc1O[C@@H]1O[C@H](CO)[C@@H](O)[C@H](O)[C@H]1O | 17 |  |
| COC(=O)c1ccc(O[C@@H]2O[C@H](CO)[C@@H](O)[C@H](O)[C@H]2O)cc1 | 17 |  |
| COc1cc([C@@H]2OC[C@@H]3[C@H]2CO[C@H]3c2ccc(O[C@@H]3O[C@H](CO)[C@@H](O)[C@H](O)[C@H]3O)c(OC)c2)ccc1O |  | 1.3 |
